In brackets after ≈: the same amount, converted by molar mass.
Legend:
E. faecalis 29212 = assay: MIC, standard panel of Gram-positive and Gram-negative bacteria (CLSI); assay type: cell-based, Enterococcus faecalis; details: Enterococcus faecalis, 29212; CAMHB; read-out: MIC E. faecalis 29212
S. pneumoniae 49619 = assay: MIC, panel of quinolone-resistant strains (CLSI); assay type: cell-based; details: Streptococcus pneumoniae, LEV S
[1] = test system: GN10 Pseudomonas aeruginosa; assay: Pre-chequerboard MIC, broth microdilution (Example 6); assay type: cell-based; details: ATCC 27853 / GN10, ATCC 27853, antibiotic susceptible
Text: (§1) A chequerboard technique was used to identify possible synergistic or antagonistic interactions between the 4-oxoquinolizines compounds, levofloxacin and polymyxin B. Levofloxacin was included as a control. […] Final dilutions were made in Mueller-Hinton broth, the specific test medium used for MIC determinations according to CLSI guidelines (CLSI. Methods for Dilution Antimicrobial Susceptibility Tests for Bacteria That Grow Aerobically; Approved Standard-Eighth Edition (2009). CLSI Document M07-A8. CLSI, Wayne, Pa. 19087-1898, USA.). The test medium used was a cation-adjusted Mueller-Hinton Broth II (Becton Dickinson UK Ltd., Oxford Science Park, Oxford, UK, OX4 4DQ).
(§2) The compounds 2, 33 and 35, as well as levofloxacin were tested in combination with polymyxin B on the following isolates: GN31 Acinetobacter baumannii—antibiotic susceptible clinical isolate, GN52 Acinetobacter baumannii—levofloxacin resistant clinical isolate, GN56 Acinetobacter baumannii—levofloxacin resistant clinical isolate, GN48 Klebsiella pneumoniae—NCTC 13443—NDM-1-metallo-R-lactamase and GN10 Pseudomonas aeruginosa—ATCC 27853—antibiotic susceptible reference isolate. All isolates are from the collection maintained at Quotient Bioresearch Ltd., Cambridge, UK.
(§3) The MIC values for the compounds and polymyxin B and levofloxacin were determined by broth microdilution following CLSI guidelines, and the MICs of agents in combination were determined as described by Pillai et.al (Pillai S K, Moellering R C Jr, Eliopoulis G M; Antimicrobial Combinations in Antibiotics in Laboratory Medicine 5th Edition (V. Lorian Ed) (2005) p 365-440). Initial MIC results were used to determine the microtiter plate patterns for the chequerboards. A suitable doubling dilution concentration range was selected such that the combination antibiotic range was at least two concentrations above and four concentrations below the MIC for each isolate. A fixed range of 0.008 to 8 mg/L was tested for polymyxin B except in the case of A. baumannii GN31 where a range of 0.004 to 4 mg/L was tested when in combination with the compounds 2, 33 and 35 as well as levofloxacin.

[2] = test system: GN48 Klebsiella pneumoniae; assay: as above; assay type: cell-based; details: GN48 / NCTC 13443, NCTC 13443, NDM-1
Text: as §1, §2, §3

[3] = test system: GN52 Acinetobacter baumannii; assay: as above; assay type: cell-based; details: levofloxacin resistant clinical isolate
Text: as §1, §2, §3

[4] = test system: GN48 Klebsiella pneumoniae; assay: Chequerboard synergy with polymyxin B (FICI); assay type: cell-based; details: combination with polymyxin B
Text: as §1, §2, §3
(§4) From the raw data, fractional inhibitory concentration indices (FICI) were determined for the compounds of the invention and levofloxacin together with polymyxin B for each isolate as follows: FICI=FICX+FICY Where,
(§5) FICX=concentration of the combination antibiotic in a particular row÷MIC of the combination drug alone
(§6) FICY=MIC of polymyxin B in combination÷MIC of the polymyxin B alone
(§7) Additionally isobolograms were created to represent the same data visually. Here, the MIC of polymyxin B was plotted against every concentration of the combination antibiotic up to the MIC.

E. faecium 19434 = assay: MIC, standard panel of Gram-positive and Gram-negative bacteria (CLSI); assay type: cell-based, Enterococcus faecium; details: Enterococcus faecium, 19434; CAMHB; read-out: MIC E. faecium 19434
E. cloacae 13047 = assay: as above; assay type: cell-based, Enterobacter cloacae; details: Enterobacter cloacae, 13047; CAMHB; read-out: MIC E. cloacae 13047
A. baumannii ATCC 19606 = assay: MIC, selected panel of Gram-positive and Gram-negative strains (Example 5); assay type: cell-based, Acinetobacter baumannii; details: Acinetobacter baumannii, ATCC19606; read-out: MIC A. baumannii ATCC 19606
[5] = test system: S. aureus BAA-1556 (USA300-Type MRSA, FQ-R); assay: as above; assay type: cell-based, Staphylococcus aureus; details: Staphylococcus aureus; read-out: MIC S. aureus BAA-1556 (USA300-Type MRSA, FQ-R)
[6] = test system: GN31 Acinetobacter baumannii; assay: Pre-chequerboard MIC, broth microdilution (Example 6); assay type: cell-based; details: antibiotic susceptible clinical isolate
Text: as §1, §2, §3

[7] = test system: GN56 Acinetobacter baumannii; assay: as above; assay type: cell-based; details: levofloxacin resistant clinical isolate
Text: as §1, §2, §3

[8] = test system: GN10 Pseudomonas aeruginosa; assay: Chequerboard synergy with polymyxin B (FICI); assay type: cell-based; details: combination with polymyxin B
Text: as §1, §2, §3, §4, §5, §6, §7

S. aureus ATCC 25923 = assay: MIC, selected panel of Gram-positive and Gram-negative strains (Example 5); assay type: cell-based; details: Staphylococcus aureus, ATCC25923; read-out: MIC S. aureus ATCC 25923
B. anthracis = assay: microbe, parasite or virus in culture; assay type: cell-based; details: Bacillus anthracis, read-out: MIC B. anthracis
F. tularensis = assay: microbe, parasite or virus in culture; assay type: cell-based; details: Francisella tularensis, read-out: MIC F. tularensis
B. abortus = assay: microbe, parasite or virus in culture; assay type: cell-based; details: Brucella abortus, read-out: MIC B. abortus
B. pseudomallei = assay: microbe, parasite or virus in culture; assay type: cell-based; details: Burkholderia pseudomallei, read-out: MIC B. pseudomallei

`Cc1c(-c2cc(F)c(N)cc2F)ccn2c(=O)c(C(=O)O)cc(C3CC3)c12` [Compound 2, 8-(3,6-difluoro-4-amino-phenyl)-1-cyclopropyl-9-methyl-4-oxo-quinolizine-3-carboxylic acid] showed an MIC (E. faecalis 29212) of under 0.008 µg/mL, an MIC (S. pneumoniae 49619) of under 0.03 µg/mL and an MIC [1] of 1 µg/mL. The MIC [2] was 32 µg/mL, the MIC [3] was 8 µg/mL and the Synergy [4] was “partial synergy”.
In the case of `Cc1c(-c2ccc(N)cc2)c(F)cn2c(=O)c(C(=O)O)cc(C3CC3)c12` [Compound 7, 8-(4-amino-phenyl)-1-cyclopropyl-7-fluoro-9-methyl-4-oxo-quinolizine-3-carboxylic acid], the MIC (E. faecium 19434) is reported as 2 µg/mL (≈ 5.68 µM) and the MIC (E. cloacae 13047) is reported as 1 µg/mL (≈ 2.84 µM).
Molecule `Cc1c(-c2ccc(N)cc2)ccn2c(=O)c(C(=O)O)cc(C3CC3)c12` [Compound 8, 8-(4-amino-phenyl)-1-cyclopropyl-9-methyl-4-oxo-quinolizine-3-carboxylic acid] has an MIC (S. pneumoniae 49619) of under 0.03 µg/mL.
With `C[C@H]1COc2c(N3CCN(C)CC3)c(F)cc3c(=O)c(C(=O)O)cn1c23` [Levofloxacin, reference compound] the MIC (A. baumannii ATCC 19606) was 0.5 µg/mL (≈ 1.38 µM), the MIC [5] was 8 µg/mL (≈ 22.1 µM) and the MIC [1] was 1 µg/mL. It also gave an MIC [6] of 0.12 µg/mL, an MIC [2] of 64 µg/mL and an MIC [7] of 32 µg/mL. For the same molecule, the “Interaction with polymyxin B, P. aeruginosa GN10” value [8] was “No interaction”.
Molecule `Cc1c(-c2ccc(CN)c(F)c2)ccn2c(=O)c(C(=O)O)cc(C3CC3)c12` [Compound 4, 8-(3-fluoro-4-aminomethyl-phenyl)-1-cyclopropyl-9-methyl-4-oxo-quinolizine-3-carboxylic acid] has an MIC (E. faecium 19434) of 2 µg/mL (≈ 5.46 µM), an MIC (S. aureus ATCC 25923) of 0.064 µg/mL (≈ 0.175 µM) and an MIC [5] of 0.5 µg/mL (≈ 1.36 µM).
In the case of `Cc1c(-c2ccc(N)c(F)c2)ccn2c(=O)c(C(=O)O)cc(C3CC3)c12` [Compound 1, 8-(3-fluoro-4-amino-phenyl)-1-cyclopropyl-9-methyl-4-oxo-quinolizine-3-carboxylic acid], the MIC (B. anthracis) is reported as under 0.008 µg/mL, the MIC (F. tularensis) is reported as under 0.03 µg/mL and the MIC (B. abortus) is reported as 0.125 µg/mL (≈ 0.355 µM). It also gave an MIC (B. pseudomallei) of 0.125 µg/mL (≈ 0.355 µM).

From patent US10155021B2, “Antimicrobial 4-oxoquinolizines” (Emergent Product Development Gaithersburg Inc., priority 2011, dated 2018)
